Laboratory results reported in the supplement of paper PMC10307832.

How the values were obtained:
Experiment in all cases: relative viability (nuclei count vs DMSO), 5 days (fraction); higher = more cells survive
BI-D1870 + AZD7762 = compound: CC(C)CCN1c2nc(Nc3cc(F)c(O)c(F)c3)ncc2N(C)C(=O)C1C [BI-D1870] + NC(=O)Nc1cc(-c2cccc(F)c2)sc1C(=O)N[C@H]1CCCNC1 [AZD7762] (partner 0.2 µM)
Outline: (§1)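 Lung cancer cell lines were seeded in 1536-well plates and dosed by pin tool the next day, with either a single drug or a fixed anchor-drug dose combined with five library-drug doses (not always all listed) spaced in √10 steps. Five days later, one step fixed the cells and stained their nuclei (final 0.05% Triton X-100, 1% formaldehyde, 1 ug/ml Hoechst), and nuclei were counted on 4× images. Relative viability is the nuclei count in treated wells divided by the count in vehicle wells, and each value is the median of duplicate plates.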

BI-D1870 + OSI-027 = compound: CC(C)CCN1c2nc(Nc3cc(F)c(O)c(F)c3)ncc2N(C)C(=O)C1C [BI-D1870] + COc1cccc2cc(-c3nc([C@H]4CC[C@H](C(=O)O)CC4)n4ncnc(N)c34)[nH]c12 [OSI-027] (partner 0.5 µM)
Outline: as §1

BI-D1870 + Tozasertib = compound: CC(C)CCN1c2nc(Nc3cc(F)c(O)c(F)c3)ncc2N(C)C(=O)C1C [BI-D1870] + Cc1cc(Nc2cc(N3CCN(C)CC3)nc(Sc3ccc(NC(=O)C4CC4)cc3)n2)n[nH]1 [Tozasertib] (partner 0.1 µM)
Outline: as §1

Zebularine + Alpelisib = compound: O=c1ncccn1[C@@H]1O[C@H](CO)[C@@H](O)[C@H]1O [Zebularine] + Cc1nc(NC(=O)N2CCC[C@H]2C(N)=O)sc1-c1ccnc(C(C)(C)C(F)(F)F)c1 [Alpelisib] (partner 2 µM)
Outline: as §1

Cell Line | relative viability (BI-D1870 + AZD7762; first compound 0.04 µM) | relative viability (BI-D1870 + AZD7762; first compound 0.1265 µM) | relative viability (BI-D1870 + AZD7762; first compound 0.4 µM) | relative viability (BI-D1870 + AZD7762; first compound 1.265 µM) | relative viability (BI-D1870 + AZD7762; first compound 4 µM) | relative viability (BI-D1870 + OSI-027; first compound 0.04 µM) | relative viability (BI-D1870 + OSI-027; first compound 0.1265 µM) | relative viability (BI-D1870 + OSI-027; first compound 0.4 µM) | relative viability (BI-D1870 + OSI-027; first compound 1.265 µM) | relative viability (BI-D1870 + OSI-027; first compound 4 µM) | relative viability (BI-D1870 + Tozasertib; first compound 0.04 µM) | relative viability (BI-D1870 + Tozasertib; first compound 0.1265 µM) | relative viability (BI-D1870 + Tozasertib; first compound 0.4 µM) | relative viability (BI-D1870 + Tozasertib; first compound 1.265 µM) | relative viability (BI-D1870 + Tozasertib; first compound 4 µM) | relative viability (Zebularine + Alpelisib; first compound 1 µM) | relative viability (Zebularine + Alpelisib; first compound 3.162 µM) | relative viability (Zebularine + Alpelisib; first compound 10 µM) | relative viability (Zebularine + Alpelisib; first compound 31.62 µM) | relative viability (Zebularine + Alpelisib; first compound 100 µM)
NCI-H2126 | 1.02 | 1.02 | 0.95 | 1.05 | 0.991 | 0.74 | 0.64 | 0.671 | 0.716 | 0.58 | 0.899 | 0.794 | 0.78 | 0.722 | 0.538 | 0.783 | 0.694 | 0.764 | 0.687 | 0.437
NCI-H3122 | 0.947 | 0.902 | 0.952 | 1.06 | 0.944 | 1.08 | 0.876 | 0.932 | 1.07 | 0.619 | 0.456 | 0.471 | 0.401 | 0.415 | 0.204 | 0.991 | 0.822 | 0.573 | 0.871 | 0.703
NCI-H1975 | 0.791 | 0.611 | 0.721 | 0.732 | 0.653 | 0.755 | 0.58 | 0.54 | 0.559 | 0.457 | 0.79 | 0.509 | 0.223 | 0.176 | 0.145 | 0.705 | 0.555 | 0.4 | 0.354 | 0.233
NCI-H1944 | 0.624 | 0.433 | 0.514 | 0.685 | 0.546 | 0.514 | 0.376 | 0.366 | 0.475 | 0.426 | 0.293 | 0.233 | 0.25 | 0.262 | 0.235 | 0.858 | 0.906 | 0.629 | 0.805 | 0.688
LU99A | 0.414 | 0.3 | 0.429 | 0.655 | 0.49 | 0.295 | 0.265 | 0.288 | 0.308 | 0.287 | 0.274 | 0.253 | 0.273 | 0.316 | 0.25 | 0.58 | 0.506 | 0.451 | 0.292 | 0.152
SW 1573 | – | – | – | – | – | 0.598 | 0.436 | 0.513 | 0.477 | 0.329 | 0.175 | 0.16 | 0.159 | 0.176 | 0.175 | 0.728 | 0.792 | 0.448 | 0.743 | 0.646
NCI-H2347 | 0.811 | 0.768 | 0.798 | 0.933 | 0.822 | 0.422 | 0.458 | 0.374 | 0.476 | 0.478 | 0.635 | 0.501 | 0.595 | 0.516 | 0.335 | 1.02 | 0.867 | 0.686 | 0.694 | 0.474
NCI-H2009 | – | – | – | – | – | 0.742 | 0.571 | 0.615 | 0.559 | 0.255 | 0.826 | 0.723 | 0.639 | 0.516 | 0.321 | 1.18 | 1.13 | 0.97 | 0.947 | 0.392
COR-L23 | – | – | – | – | – | 0.883 | 0.722 | 0.707 | 0.823 | 0.577 | 0.199 | 0.166 | 0.145 | 0.181 | 0.13 | 0.872 | 0.926 | 0.431 | 0.361 | 0.265
